Laboratory results reported in publication PMC7310436, “JP3, an antiangiogenic peptide, inhibits growth and metastasis of gastric cancer through TRIM25/SP1/MMP2 axis” (Journal of Experimental & Clinical Cancer Research : CR, 2020).
Where a SMILES comes first, the peptide text is derived from it. [ ]: non-standard residue; d: D form. pY = N[C@@H](Cc1ccc(OP(=O)(O)O)cc1)C(=O)O; pT = C[C@@H](OP(=O)(O)O)[C@H](N)C(=O)O

Key:
BGC823 cells [1] = assay: Xenograft screening of MMP2-targeted peptides by intraperitoneal injection; format: in vivo, BALB/c nude mice
Method: (§1) For establishing xenograft mouse models, 5 × 10^6/200 μL of BGC823 cells were subcutaneously injected into flank of BALB/c nude mice. When the tumor volume (V = 0.5 × length × width^2) reached about 100 mm^3, the mice were randomly divided into different groups and received the indicated treatments. General situations and activities of each mouse were daily recorded. Tumor sizes were recorded by caliper every 3 days for calculating tumor volumes. Body weight of the experimental mouse was also recorded every 3 days. The endpoint of the experimental therapy was determined until enough growth (up to 2000 mm^3) of the xenograft tumor or intolerable side effects.
(§2) In the present study, the strategy to screen JWA protein based functional tumor inhibitory peptides included four steps, (1) all the candidate fragments were selected from non-transmembrane regions and contain amino acid can be phosphorylated in its sequence; (2) the intra-tumor injection in xenograft GC tumor in mouse model was used for first round screening for all candidate fragments; (3) the identified functional peptides in (2) were modified with HWGF as MMP2 target and used for secondary screening by intraperitoneal injection in xenograft GC mouse model; (4) the functional peptides selected in (3) were further used to inhibit metastasis of GC (Fig. 1a).

MMP2 [2] = assay: Western blotting in GC cells; format: cell-based, human; details: SGC7901 and BGC823 (Non(p)-JP3: BGC823, 24 h)
Method: (§3) Western blotting analysis was carried out as previously described. The antibodies against MMP2, Tubulin, Ub, HA-tag, Flag-tag and Ki-67 were purchased from Cell Signal Technology (Danvers MA, USA); anti-CD31 and PCNA were provided by Epitomics (MA, USA); anti-GAPDH and Actin were purchased from Beyotime (Jiangsu, China); anti-TRIM25 and SP1 were provided by Proteintech (Wuhan, China); anti-His was purchased from MBL (Japan). All above antibodies were used at a dilution of 1:1000.

JWA = assay: Western blotting in GC cells; format: cell-based, human; details: SGC7901 and BGC823
Method: as §3

HUVECs [3] = assay: HUVECs tube formation assay, direct treatment of HUVECs; format: cell-based, human; details: HUVECs treated at similar dose for 24 h
HUVECs [4] = assay: HUVECs tube formation assay with conditional medium of peptide-treated GC cells; format: cell-based, human; details: 4 h on Matrigel
Method: After 6 hours of peptide treatment of GC cells, the medium was replaced and cultured in a 60 mm petri dish containing 1% serum for 24 h. On the next day, 2 mL of conditional medium was collected. For tube formation assay, a 96-well plate was coated with 50 μL of Matrigel™ (BD Biosciences) and kept at 37 °C for 2 h. Then, 1.2 × 10^4 HUVECs suspended in 100 μL of conditional medium were applied to each well of the precoated 96-well plate. After incubation at 37 °C for 4 h, tubular structures formed in the Matrigel were captured in five randomly selected fields per sample under a microscope.

TRIM25 [5] = assay: Western blotting in BGC823 cells; format: cell-based, human; details: 0, 1, 10, 50 μM for 24 h
Method: as §3

CD31 [6] = assay: IHC of lung sections, metastatic GC mouse model; format: in vivo, BALB/c nude mice
Method: (§4) Fig. 1 MMP2-targeted polypeptide JP3 inhibits growth and metastasis of GC in vivo. a The screening flowchart of JWA candidate peptides in nude mice. b The name and amino acid sequence of six fragments. c The ratios of mouse xenograft tumor weight/mice weight from screening model by intratumor injection. d The inhibition rates of tumor growth from screening model by intraperitoneal injection. e The expression levels of MMP2, CD31 and PCNA protein were analyzed using Western blotting in tumor tissues from nude mice bearing GC. f-g Sections of tumors were stained with anti-Ki-67 and anti-CD31 antibodies by IHC (scale bars = 50 μm). h-i The luciferase signals in the mice were detected and photographed using an IVIS in vivo image system. j-k The representative HE staining sections of lung (scale bars = 2 mm). l-m Sections of lung were stained with anti-CD31 antibodies by IHC (scale bars = 50 μm). The data are presented as the means ± SEM, ns: no significance, *P < 0.05, **P < 0.01
For establishment of metastatic GC mouse model, five-week-old BALB/c nude mice were randomly divided into two groups, 3 mice each. BGC823 cells were suspended in PBS. The mice were injected intravenously with 2 × 10^6 cells in 0.15 mL of PBS through tail vein. […]

SP1 [7] = assay: Western blotting in GC cells; format: cell-based; details: SGC7901 and BGC823 (Non(p)-JP3: BGC823, 24 h)
Method: as §3

SP1 [8] = assay: Protein stability, CHX chase and Western blotting; format: cell-based, human; details: BGC823 cells; 50 μM for 24 h, then CHX
Method: as §3

TRIM25 [9] = assay: Protein stability, CHX chase and Western blotting; format: cell-based, human; details: BGC823 cells; 50 μM for 12 h, then CHX
Method: as §3

SP1 [10] = assay: Ubiquitination assay; format: cell-based, human
Method: (§5) GC cells were treated with or without JP3, followed by incubation with MG132 (10 μM) for another 6 h. Cells were harvested, prepared for protein samples and divided for Western blotting and co-IP assay, respectively. For co-IP assay, the protein (500 μg) was cultured with anti-SP1 or anti-TRIM25 antibody (dilution: 1:250) at 4 °C for 1 h, and Protein A/G Plus-Agarose overnight. After three cycles of washing in pre-cold IP buffer and centrifugation at 4 °C, 1000×g for 5 min, the immunoprecipitate was collected by centrifugation, eluted and examined by Western blotting.

TRIM25 [11] = assay: Ubiquitination assay; format: cell-based, human; details: BGC823 cells; His-Ub 48 h, 50 μM 24 h, MG132 10 μM 6 h; IP anti-TRIM25
Method: as §5

BGC823 cells [12] = assay: Colony formation assay; format: cell-based, human; details: different concentrations of JP3
SP1 [13] = assay: Western blotting of xenograft tumor tissues; format: in vivo, BALB/c nude mice; details: compared to the Ctrl-P-H treatment
Method: as §3

PCNA = assay: Western blotting of xenograft tumor tissues; format: in vivo, BALB/c nude mice; details: nude mice bearing GC
Method: as §3

MMP2 [14] = assay: Western blotting of xenograft tumor tissues; format: in vivo, BALB/c nude mice; details: nude mice bearing GC
Method: as §3

CD31 [15] = assay: Western blotting of xenograft tumor tissues; format: in vivo, BALB/c nude mice; details: nude mice bearing GC
Method: as §3

TRIM25 [16] = assay: Western blotting of xenograft tumor tissues; format: in vivo, BALB/c nude mice; details: compared to the Ctrl-P-H treatment
Method: as §3

[17] = tested on: CD31 (microvessel density (MVD)); assay: IHC of xenograft tumor sections; format: in vivo, BALB/c nude mice
Method: as §4

Ki-67 = assay: IHC of xenograft tumor sections; format: in vivo, BALB/c nude mice
Method: as §4

BGC823 cells [18] = assay: Metastatic GC mouse model (tail vein injection, bioluminescence imaging, HE staining of lung); format: in vivo, BALB/c nude mice
Method: For establishment of metastatic GC mouse model, five-week-old BALB/c nude mice were randomly divided into two groups, 3 mice each. BGC823 cells were suspended in PBS. The mice were injected intravenously with 2 × 10^6 cells in 0.15 mL of PBS through tail vein. On next day, the mice were treated by intra-peritoneal (ip) injection of Ctrl-H-P and JP3 and followed by luciferase substrate (GM-040611, Genomeditech, China); and photographed using the IVIS Spectrum in vivo imaging system (PerkinElmer, USA) on day 50th to observe the cancer cell metastasis.

[19] = Toxicity and body weight in treated mice; format: in vivo, BALB/c nude mice; details: xenograft and metastatic mice models
TRIM25 mRNA = assay: qRT-PCR; format: cell-based, human
Method: (§6) According to the manufacturer’s protocol, total RNAs were isolated using TRIzol (Invitrogen, CA, USA) and reversely transcribed into cDNAs using reverse transcription kit and the SYBR Green Master Mix kit (Takara, Otsu, Japan). The complementary DNA (cDNA) was amplified with the following primers: 5′-[…]-3′ (forward) and 5′-[…]-3′ (reverse) for TRIM25; 5′-[…]-3′ (forward) and 5′-[…]-3′ (reverse) for GAPDH; 5′-[…]’-3′ (forward) and 5′-[…]-3′ (reverse) for SP1. Quantitative RT-PCR was carried out an ABI Prism 7900 Sequence detection system (Applied Biosystems, Canada). Relative levels were normalized to that of GAPDH.

SP1 mRNA = assay: qRT-PCR; format: cell-based, human; details: BGC823 and SGC7901 cells
Method: as §6

BGC823 cells [20] = assay: Xenograft screening of candidate peptides by intra-tumor injection; format: in vivo, BALB/c nude mice; details: BGC823 subcutaneous xenograft; intra-tumor injection 10 mg/kg/d for 5 days/week x 2 weeks
Method: as §1, §2

CSCC[C@H](NC(=O)[C@H](CCCNC(=N)N)NC(C)=O)C(=O)N[C@@H](CCCCN)C(=O)N[C@@H](CCCCN)C(=O)N[C@@H](CCCNC(=N)N)C(=O)N[C@@H](Cc1ccc(O)cc1)C(=O)N1CCC[C@H]1C(=O)N[C@H](C(=O)N[C@H](C(=O)N[C@@H](Cc1ccccc1)C(=O)N[C@H](C(=O)N[C@@H](CCSC)C(=O)N[C@H](C(=O)N[C@H](C(=O)NCC(=O)NCC(=O)NCC(=O)NCC(=O)N[C@@H](Cc1c[nH]cn1)C(=O)N[C@@H](Cc1c[nH]c2ccccc12)C(=O)NCC(=O)N[C@@H](Cc1ccccc1)C(N)=O)C(C)C)C(C)C)C(C)C)[C@@H](C)OP(=O)(O)O)[C@@H](C)O [JP3] (Ac-RMKKRYPT[pT]FVMVVGGGGHWGF-NH2)
tumor inhibitory rate (inhibition of xenograft tumor growth) (BGC823 cells [1]; BGC823 subcutaneous xenograft, intraperitoneal injection 50 mg/kg/d for 12 days): best tumor inhibitory rate among candidates
expression of MMP2 in GC cells (MMP2 [2]): down-regulated
expression of JWA in GC cells (JWA): no obvious effect
tubular formation of HUVECs, direct treatment (HUVECs [3]): no obvious effects
tubular formation of HUVECs (HUVECs [4]; supernatent of peptide-treated BGC823 cells): dose-dependently inhibited
tubular formation of HUVECs (HUVECs [4]; supernatent of peptide-treated SGC7901 cells): dose-dependently inhibited
TRIM25 protein level (TRIM25 [5]): dose-dependent increase
expression of CD31 in GC metastatic tissues (CD31 [6]): significantly suppressed
expression of SP1 in GC cells (SP1 [7]): down-regulated
degradation (stability) of SP1 (SP1 [8]): accelerated degradation
degradation (stability) of TRIM25 (TRIM25 [9]): slowed down the degradation
relative band intensity printed with the blot (IP: SP1, IB: ubiquitin) (SP1 [10]; BGC823, His-ub, JP3 50 μM, with MG132 10 μM 6 h, control = 1.00, MG132 alone 1.50): 2.17
ubiquitinated SP1 (SP1 [10]; BGC823 and SGC7901 cells, His-ub 48 h, 50 μM for 24 h, IP anti-SP1): increased
ubiquitinated TRIM25 (TRIM25 [11]): decreased
effect on GC cell proliferation in vitro (colony numbers) (BGC823 cells [12]): no obvious effects
expression of SP1 in GC tumor tissues (SP1 [13]): down-regulated
expression of PCNA in GC tumor tissues (PCNA): down-regulated
expression of MMP2 in GC tumor tissues (MMP2 [14]): down-regulated
expression of CD31 in GC tumor tissues (CD31 [15]): down-regulated
expression of TRIM25 in GC tumor tissues (TRIM25 [16]): up-regulated
expression of CD31 (microvessel density (MVD)) in GC tumor tissues [17]: suppressed
expression of Ki-67 in GC tumor tissues (Ki-67): suppressed
relative area of metastatic tumor in lung (BGC823 cells [18]; HE staining): significantly decreased
fluorescence intensity of GC cell metastatic foci (BGC823 cells [18]; bioluminescence imaging on day 50, ip injection, compared with Ctrl-P-H group, 3 mice each): obviously reduced
side effects [19]: undetectable side effects
mRNA level of TRIM25 (TRIM25 mRNA): not affected
mRNA level of SP1 (SP1 mRNA): not affected

CSCC[C@H](NC(=O)[C@H](CCCNC(=N)N)NC(C)=O)C(=O)N[C@@H](CCCCN)C(=O)N[C@@H](CCCCN)C(=O)N[C@@H](CCCNC(=N)N)C(=O)N[C@@H](Cc1ccc(OP(=O)(O)O)cc1)C(=O)N1CCC[C@H]1C(=O)N[C@H](C(=O)N[C@H](C(=O)N[C@@H](Cc1ccccc1)C(=O)N[C@H](C(=O)N[C@@H](CCSC)C(=O)N[C@H](C(=O)N[C@H](C(N)=O)C(C)C)C(C)C)C(C)C)[C@@H](C)O)[C@@H](C)O [PJP3–1] (Ac-RMKKR[pY]PTTFVMVV-NH2)
tumor inhibitory effect (ratio of mouse xenograft tumor weight/mice weight) (BGC823 cells [20]): better effects than the others

CSCC[C@H](NC(=O)[C@H](CCCNC(=N)N)NC(C)=O)C(=O)N[C@@H](CCCCN)C(=O)N[C@@H](CCCCN)C(=O)N[C@@H](CCCNC(=N)N)C(=O)N[C@@H](Cc1ccc(O)cc1)C(=O)N1CCC[C@H]1C(=O)N[C@H](C(=O)N[C@H](C(=O)N[C@@H](Cc1ccccc1)C(=O)N[C@H](C(=O)N[C@@H](CCSC)C(=O)N[C@H](C(=O)N[C@H](C(N)=O)C(C)C)C(C)C)C(C)C)[C@@H](C)OP(=O)(O)O)[C@@H](C)O [PJP3–3] (Ac-RMKKRYPT[pT]FVMVV-NH2)
tumor inhibitory effect (ratio of mouse xenograft tumor weight/mice weight) (BGC823 cells [20]): better effects than the others

CC[C@H](C)[C@H](NC(C)=O)C(=O)NCC(=O)N[C@@H](CC(C)C)C(=O)N[C@@H](CCCCN)C(=O)N[C@@H](CCCNC(=N)N)C(=O)N[C@H](C(=O)N1CCC[C@H]1C(=O)N[C@@H](CCSC)C(=O)NCC(=O)N[C@H](C(=O)N[C@H](C(N)=O)C(C)C)[C@@H](C)CC)[C@@H](C)OP(=O)(O)O [PJP5] (Ac-IGLKR[pT]PMGIV-NH2)
tumor inhibitory effect (ratio of mouse xenograft tumor weight/mice weight) (BGC823 cells [20]): better effects than the others

HWGF [histidine-tryptophan-glycine-phenylalanine, reference compound]
biological function to inhibit gastric cancer (BGC823 cells [1]; HWGF targeting MMP2 alone): no biological function to inhibit gastric cancer
